In paper PMC5118871 (Molecular microbiology, 2016):

B1: L. monocytogenes OpuCA (LmOpuCA) tandem CBS domains (residues 247–371) (domain or fragment, UniProt Q9KHT9 247-371, looked up)
chain: DVTQVAQIMNTNPVSITADKSLQAAITVMKEKRVDTLLVVDEGNVLKGFIDVEQIDLNRRTATSVMDIIEKNVFYVYEDTLLRDTVQRILKRGYKYIPVVDKDKRLVGIVTRASLVDIVYDSIWG

Columns and labels:
[1] = biological target: T1, LmOpuCA tandem CBS domains (residues 247–371) (Listeria monocytogenes, UniProt Q9KHT9); experiment: X-ray crystal structure, […] Å, crystal soaked with c-di-AMP; type: binding; details: one c-di-AMP per dimer, at the dimer interface; pH 9.0
T1 sequence (Q9KHT9 247-371): B1 chain

crystal structure = biological target: the molecule itself; experiment: crystal structure

Row | Molecule | X-ray crystal structure, 2.9 Å, crystal soaked with c-di-AMP [1] | stoichiometry N (crystal structure)
1 | Nc1ncnc2c1ncn2[C@@H]1O[C@@H]2COP(=O)(O)O[C@H]3[C@@H](O)[C@H](n4cnc5c(N)ncnc54)O[C@@H]3COP(=O)(O)O[C@H]2[C@H]1O [c-di-AMP] | We observed clear electron density for one c-di-AMP molecule bound to the OpuCA dimer | –
2 | B1 | – | 2
